Experimental data as given in patent US9783527B2, “Indazole ureas and method of use” (AbbVie Inc., priority 2014, dated 2017).

How the values were obtained:
[1] = test system: MIA-induced osteoarthritic pain in rats; assay: Osteoarthritic (OA) pain induced by sodium monoiodoacetate (MIA), hind limb grip force; assay type: in vivo, rat; settings: male Sprague Dawley rats, grip force 20 days after MIA injection
Method: Osteoarthritic (OA) Pain Induced by Sodium Monoiodoacetate (MIA)
Pain behavior was assessed by measurement of hind limb grip force (GF) in adult osteoarthritic rats. Male Sprague Dawley rats, obtained from Charles River Laboratories, (Wilmington, Mass.), weighing 150-175 g, were injected in the unilateral knee join with a single intra-articular injection of sodium monoiodoacetate (MIA, 3 mg/rat). All rats were tested at 20 days following MIA injection. A behavioral measure of activity-induced pain was carried out. Measurements of the peak hind limb grip force were conducted by recording the maximum compressive force (CFmax), in grams of force, exerted on a hind limb strain gauge setup, in a commercially available grip force measurement system (Columbus Instruments, Columbus, Ohio).
During testing, each rat was gently restrained by grasping it around its rib cage and then allowed to grasp the wire mesh frame attached to the strain gauge. The experimenter then moved the animal in a rostral-to-caudal direction until the grip was broken. Each rat was sequentially tested twice at an approximately 2-3 minute interval to obtain a raw mean grip force (CFmax). This raw mean grip force data was in turn converted to a maximum hindlimb cumulative compressive force (CFmax), as the grams of force/kg of body weight, for each animal.
For evaluating the compound effects, the hind limb grip force was conducted 20 days following the intra-articular injection of MIA. A group of age-matched nave (not injected with MIA) animals was added as a comparator to the drug-dosed groups. The vehicle control response for each group of MIA-treated animals was defined as the 0% response (0% effect), whereas the nave control group was defined as the normal response and as 100% effect. The % effect for each dose group was expressed as % return of response to normalcy, compared to the nave group. A percent maximal possible effect (% MPE) of testing compound was calculated according to the formula: (Treatment CFmax−Vehicle CFmax)/Vehicle CFmax]×100). Higher % effect numbers indicate increased relief from the pain in the model, with 100% indicating a return to the level of response seen in normal (non-osteoarthritic) animals. All experiments evaluating drug effects in this model were conducted in a randomized blinded fashion.
(§1) The animals were housed in Association for Assessment and Accreditation of Laboratory Animal Care (AAALAC) approved facilities at AbbVie Inc. in a temperature-regulated environment under a controlled 12-hour light-dark cycle, with lights on at 6:00 a.m. Food and water were available ad libitum at all times except during testing. All testing was done following procedures outlined in protocols approved by AbbVie Inc.'s Institutional Animal Care and Use Committee.

[2] = test system: spinal nerve ligation-induced neuropathic pain in rats; assay: Rat spinal nerve ligation (SNL) model of neuropathic pain, von Frey paw withdrawal threshold; assay type: in vivo; settings: SNL dose 100 mg/kg; male Sprague Dawley rats, mechanical sensitivity (von Frey)
Source text: Rat Spinal Nerve Ligation (SNL) Model of Neuropathic Pain.
A model of spinal nerve ligation-induced (SNL model) neuropathic pain as originally described by Kim and Chung (Kim, S. H. and J. M. Chung, 1992, Pain 50, 355) was used to test a compound of the present application. The male Sprague Dawley rats (Charles River Laboratories, Wilmington, Mass.), weighing 150-175 g at the time of surgery, were placed under isoflurane anesthesia and a 1.5 cm incision was made dorsal to the lumbosacral plexus. The paraspinal muscles (left side) were separated from the spinous processes, the left L5 and L6 spinal nerves isolated, and tightly ligated with 5-0 silk suture distal to the dorsal root ganglion. Care was taken to avoid ligating the L4 spinal nerve. Following spinal nerve ligation, a minimum of 7 days of recovery and no more than 3 weeks was allowed prior to the behavioral testing (mechanical sensitivity). Only rats with threshold scores ≦4.5 g were considered allodynic and utilized in pharmacological experiments.
Mechanical sensitivity was measured using calibrated von Frey filaments (Stoelting, Wood Dale, Ill.). Paw withdrawal threshold (PWT) was determined by using the Dixon's up-down method (Dixon, W. J., 1980, Ann. Rev. Pharmacol. Toxicol., 20, 441). Rats were placed into inverted individual plastic containers (20×12.5×20 cm) on top of a suspended wire mesh with a 1 cm^2 grid to provide access to the ventral side of the hind paws, and acclimated to the test chambers for 20 minutes. The von Frey filaments were presented perpendicularly to the plantar surface of the selected hind paw, and then held in this position for approximately 8 seconds with enough force to cause a slight bend in the filament. Positive responses included an abrupt withdrawal of the hind paw from the stimulus, or flinching behavior immediately following removal of the stimulus. A 50% withdrawal threshold was determined using an up-down procedure (Dixon, 1980). A percent maximal possible effect (% MPE) of testing compound was calculated according to the formula: (Log [compound-treated threshold]−Log [vehicle-treated threshold])/(Log [maximum threshold]−Log [vehicle-treated threshold])×100%, where the maximum threshold was equal to 15 g.
as §1, with “Inc.s'” for “Inc.'s”

[3] = target: human Nav1.7 (Homo sapiens (Human), UniProt Q15858); assay: FRET-based membrane potential assay, recombinant human sodium channel Nav1.7; assay type: cell-based; settings: HEK293 cells stably expressing recombinant human Nav1.7; depolarization with veratridine (EC80) + scorpion venom
human Nav1.7, sequence (Q15858 whole entry): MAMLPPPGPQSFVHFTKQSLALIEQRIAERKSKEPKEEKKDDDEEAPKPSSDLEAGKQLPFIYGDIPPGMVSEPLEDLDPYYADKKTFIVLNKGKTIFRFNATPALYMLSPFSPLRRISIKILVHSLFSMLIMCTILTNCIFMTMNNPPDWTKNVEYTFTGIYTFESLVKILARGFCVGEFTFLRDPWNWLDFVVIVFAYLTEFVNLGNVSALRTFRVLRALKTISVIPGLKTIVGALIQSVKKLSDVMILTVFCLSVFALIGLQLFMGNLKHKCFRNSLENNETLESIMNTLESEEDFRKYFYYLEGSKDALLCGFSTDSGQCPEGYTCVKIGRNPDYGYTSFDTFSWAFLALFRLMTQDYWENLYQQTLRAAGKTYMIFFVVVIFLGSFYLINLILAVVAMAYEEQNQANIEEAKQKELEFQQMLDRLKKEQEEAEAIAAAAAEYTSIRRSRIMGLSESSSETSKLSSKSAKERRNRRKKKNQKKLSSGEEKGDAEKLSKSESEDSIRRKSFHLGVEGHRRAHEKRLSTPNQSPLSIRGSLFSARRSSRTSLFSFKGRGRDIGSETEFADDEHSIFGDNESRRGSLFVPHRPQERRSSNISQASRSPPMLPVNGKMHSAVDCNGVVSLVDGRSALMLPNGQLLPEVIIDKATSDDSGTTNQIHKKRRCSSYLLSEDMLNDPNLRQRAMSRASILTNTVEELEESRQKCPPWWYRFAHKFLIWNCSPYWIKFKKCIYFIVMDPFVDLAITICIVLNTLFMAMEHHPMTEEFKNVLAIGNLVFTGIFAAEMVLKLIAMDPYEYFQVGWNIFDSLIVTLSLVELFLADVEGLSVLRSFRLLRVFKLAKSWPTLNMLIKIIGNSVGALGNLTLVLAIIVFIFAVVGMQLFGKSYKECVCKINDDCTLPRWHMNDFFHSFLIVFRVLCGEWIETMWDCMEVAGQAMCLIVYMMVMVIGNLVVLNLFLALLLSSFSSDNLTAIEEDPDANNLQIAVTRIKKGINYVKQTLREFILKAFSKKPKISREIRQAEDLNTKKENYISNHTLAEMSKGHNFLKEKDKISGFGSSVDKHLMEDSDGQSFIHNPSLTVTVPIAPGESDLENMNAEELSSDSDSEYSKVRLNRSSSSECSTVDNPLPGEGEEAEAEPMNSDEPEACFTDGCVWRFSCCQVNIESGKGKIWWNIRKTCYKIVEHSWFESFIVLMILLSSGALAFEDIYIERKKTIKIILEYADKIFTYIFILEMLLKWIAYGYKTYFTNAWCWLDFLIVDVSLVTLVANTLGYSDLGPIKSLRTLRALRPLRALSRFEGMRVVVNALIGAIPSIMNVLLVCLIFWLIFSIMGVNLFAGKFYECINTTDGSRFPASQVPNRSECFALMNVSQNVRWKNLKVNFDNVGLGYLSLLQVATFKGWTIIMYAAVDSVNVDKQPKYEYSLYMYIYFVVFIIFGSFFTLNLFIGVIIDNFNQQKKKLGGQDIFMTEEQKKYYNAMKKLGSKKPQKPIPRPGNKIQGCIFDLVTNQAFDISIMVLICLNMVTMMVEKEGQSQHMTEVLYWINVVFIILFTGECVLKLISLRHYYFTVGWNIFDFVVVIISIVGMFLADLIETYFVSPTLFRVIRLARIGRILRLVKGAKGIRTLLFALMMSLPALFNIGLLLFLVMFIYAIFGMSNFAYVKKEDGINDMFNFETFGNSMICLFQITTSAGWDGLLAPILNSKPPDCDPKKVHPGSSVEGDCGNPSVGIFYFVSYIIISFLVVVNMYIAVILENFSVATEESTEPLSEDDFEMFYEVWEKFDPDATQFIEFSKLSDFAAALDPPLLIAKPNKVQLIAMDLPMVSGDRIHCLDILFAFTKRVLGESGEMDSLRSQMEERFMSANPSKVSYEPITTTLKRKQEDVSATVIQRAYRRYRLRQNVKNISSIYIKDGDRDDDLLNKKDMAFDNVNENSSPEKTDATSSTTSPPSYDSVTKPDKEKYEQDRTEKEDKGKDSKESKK
Procedure, shortened: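 IC50 derived by four-parameter Hill fit of percent inhibition of depolarization, measured as peak F440-480/F565-625 ratio over baseline. Stable human Nav1.7 HEK293 cells, dye-loaded with CC2-DMPE and DiSBAC2(3)/VABSC-1 at room temperature, received compound 3 min ahead of veratridine (EC80) plus scorpion venom.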

[4] = target: human Nav1.8 (Homo sapiens (Human), UniProt Q9Y5Y9); assay: FRET-based membrane potential assay, recombinant human sodium channel Nav1.8; assay type: cell-based; settings: HEK293 cells stably expressing recombinant human Nav1.8; depolarization with veratridine (EC80) + scorpion venom
human Nav1.8, sequence (Q9Y5Y9 whole entry): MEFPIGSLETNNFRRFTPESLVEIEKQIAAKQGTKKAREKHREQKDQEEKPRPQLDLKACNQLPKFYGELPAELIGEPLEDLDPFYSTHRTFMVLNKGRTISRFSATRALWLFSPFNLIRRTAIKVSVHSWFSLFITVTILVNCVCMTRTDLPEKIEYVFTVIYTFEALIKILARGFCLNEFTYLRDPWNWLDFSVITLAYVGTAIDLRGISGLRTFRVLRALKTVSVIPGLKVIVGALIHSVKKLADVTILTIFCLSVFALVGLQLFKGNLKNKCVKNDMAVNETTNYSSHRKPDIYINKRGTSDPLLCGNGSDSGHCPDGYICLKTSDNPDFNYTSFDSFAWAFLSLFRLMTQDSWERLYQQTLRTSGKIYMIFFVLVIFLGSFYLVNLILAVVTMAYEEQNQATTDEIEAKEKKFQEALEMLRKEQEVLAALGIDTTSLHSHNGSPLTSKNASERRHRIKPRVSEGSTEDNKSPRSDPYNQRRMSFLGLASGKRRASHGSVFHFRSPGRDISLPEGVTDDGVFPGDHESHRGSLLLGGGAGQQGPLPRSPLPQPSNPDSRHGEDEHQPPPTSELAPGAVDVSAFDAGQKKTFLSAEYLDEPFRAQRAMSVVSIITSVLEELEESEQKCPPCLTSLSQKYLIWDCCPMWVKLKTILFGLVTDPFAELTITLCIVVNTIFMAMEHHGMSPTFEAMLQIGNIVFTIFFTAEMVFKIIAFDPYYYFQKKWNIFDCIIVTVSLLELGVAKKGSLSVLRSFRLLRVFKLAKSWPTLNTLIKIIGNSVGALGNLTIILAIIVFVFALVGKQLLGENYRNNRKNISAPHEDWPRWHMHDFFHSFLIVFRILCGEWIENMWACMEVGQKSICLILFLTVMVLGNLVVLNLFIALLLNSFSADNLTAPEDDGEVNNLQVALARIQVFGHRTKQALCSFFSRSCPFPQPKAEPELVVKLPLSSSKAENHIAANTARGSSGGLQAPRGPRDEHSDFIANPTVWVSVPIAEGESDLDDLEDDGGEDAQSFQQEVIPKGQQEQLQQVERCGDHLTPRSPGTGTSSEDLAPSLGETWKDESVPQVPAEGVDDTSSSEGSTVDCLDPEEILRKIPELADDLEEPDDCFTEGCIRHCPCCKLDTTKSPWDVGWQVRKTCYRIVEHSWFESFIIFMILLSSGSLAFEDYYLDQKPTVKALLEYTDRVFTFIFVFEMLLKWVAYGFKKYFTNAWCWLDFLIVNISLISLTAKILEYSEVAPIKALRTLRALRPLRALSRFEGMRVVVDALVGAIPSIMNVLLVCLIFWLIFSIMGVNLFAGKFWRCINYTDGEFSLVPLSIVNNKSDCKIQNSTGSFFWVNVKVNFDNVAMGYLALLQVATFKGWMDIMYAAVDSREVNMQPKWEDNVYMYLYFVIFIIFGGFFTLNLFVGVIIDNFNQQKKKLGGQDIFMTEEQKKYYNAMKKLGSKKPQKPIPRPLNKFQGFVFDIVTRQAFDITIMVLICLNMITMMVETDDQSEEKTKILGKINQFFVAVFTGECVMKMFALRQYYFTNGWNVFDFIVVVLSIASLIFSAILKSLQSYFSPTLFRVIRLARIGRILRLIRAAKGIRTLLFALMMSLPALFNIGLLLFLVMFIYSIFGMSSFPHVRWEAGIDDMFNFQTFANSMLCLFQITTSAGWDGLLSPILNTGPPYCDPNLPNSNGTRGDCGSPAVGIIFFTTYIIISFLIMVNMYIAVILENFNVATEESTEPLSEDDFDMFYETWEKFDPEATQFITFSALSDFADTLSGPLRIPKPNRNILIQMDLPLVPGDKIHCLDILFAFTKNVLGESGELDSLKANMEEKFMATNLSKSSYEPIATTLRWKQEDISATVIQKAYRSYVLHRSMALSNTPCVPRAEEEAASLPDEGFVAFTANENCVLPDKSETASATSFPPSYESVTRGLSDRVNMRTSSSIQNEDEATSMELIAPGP
Procedure, shortened: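 HEK293 cells stably expressing Nav1.8 were loaded with CC2-DMPE/DiSBAC2(3) FRET voltage dyes. Compounds were added 3 min before depolarization with EC80 veratridine plus scorpion venom. The F440-480/F565-625 ratio was read on FLIPR; IC50 came from four-parameter Hill fits.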

SMILES | OA MPE (%) ([1]; OA dose 30 mg/kg) | SNL MPE (%) [2] | OA MPE (%) ([1]; OA dose 10 mg/kg) | IC50 [3] | IC50 [4]
O=C(CN1CCN(c2cccc3c2cnn3-c2ccccc2F)C1=O)N1CCCC1 [Example 1, 1-[1-(2-fluorophenyl)-1H-indazol-4-yl]-3-[2-oxo-2-(pyrrolidin-1-yl)ethyl]imidazolidin-2-one] | 55% | 52% |  |  | 
O=C1N(Cc2ncco2)CCN1c1cccc2c1cnn2-c1ccccc1F [Example 31, 1-[1-(2-fluorophenyl)-1H-indazol-4-yl]-3-(1,3-oxazol-2-ylmethyl)imidazolidin-2-one] |  | 94% | 89% |  | 
O=C(CN1CCN(c2cccc3c2cnn3-c2ccccc2F)C1=O)N1CC[C@H](F)C1 [Example 10, 1-[1-(2-fluorophenyl)-1H-indazol-4-yl]-3-{2-[(3S)-3-fluoropyrrolidin-1-yl]-2-oxoethyl}imidazolidin-2-one] | 91% | 0% |  |  | 
O=C(CN1CCN(c2cccc3c2cnn3-c2ccccc2F)C1=O)N1CCC[C@@H](F)C1 [Example 53, 1-[1-(2-fluorophenyl)-1H-indazol-4-yl]-3-{2-[(3R)-3-fluoropiperidin-1-yl]-2-oxoethyl}imidazolidin-2-one] | 74% | 47% |  |  | 
CC(C)CC(=O)CN1CCN(c2cccc3c2cnn3-c2ccccc2F)C1=O [Example 8, 1-[1-(2-fluorophenyl)-1H-indazol-4-yl]-3-(4-methyl-2-oxopentyl)imidazolidin-2-one] | 75% | 57% |  |  | 
O=C1N(Cc2cocn2)CCN1c1cccc2c1cnn2-c1ccccc1F [Example 26, 1-[1-(2-fluorophenyl)-1H-indazol-4-yl]-3-(1,3-oxazol-4-ylmethyl)imidazolidin-2-one] |  | 54% |  | 382 nM | 517 nM
